Laboratory results as given in US8022225B2, “Triazole derivative” (Taisho Pharmaceutical Co., Ltd, priority 2004, dated 2011).

Legend:
[1] = molecular target: T1, human Edg-1(S1P1) (Homo sapiens, UniProt P21453); experiment: Cell system binding test: inhibition of [3H]-S1P binding to Edg-1(S1P1) gene transferred HEK-293 cells; conditions: [3H]-S1P 10 nM
T1 construct: expressed in transfected cells; host or cells: HEK-293

[2] = molecular target: T1, human Edg-1(S1P1); experiment: Membrane system binding test: inhibition of [33P]-S1P binding to the membrane fraction of Edg-1(S1P1) gene transferred HEK-293 cells; conditions: [33P]-S1P 0.1 nM
Protocol: The membrane fraction was obtained by treating the cells with a solubilizing buffer (1 mM Tris/HCl, pH 7.2) for 10 minutes on ice, centrifuging the system (1000×g, 5 min) to remove insoluble fractions, and then centrifuging the system (40000×g, 30 min, 4° C.). The resulting membrane fraction was dissolved in a binding buffer (20 mM Tris-HCl, pH 7.4, 100 mM NaCl, 15 mM NaF, 2 mM deoxypyridoxine, 4 mg/mL fatty acid-free BSA), and then [^33P]-S1P (produced by ARC, end concentration 0.1 nM) and a DMSO solution of the test compound (end concentration of the compound: 10^−5 M, end concentration of DMSO: 0.1%) were added, followed by stirring the mixture and subsequently treating it for 1 hour at 30° C. Using a harvester, the membrane fraction was harvested onto unifilter-96GF/C filter (produced by Perkin-Elmer). Then, the filter with the membrane fraction was washed 4 times with the binding buffer, and the filter was dried. To the filter, 25 μL Microscint 0 (produced by Perkin-Elmer) was added, and the assay system was measured for radioactivity by means of Top Count NXT (Packard). Based on the radioactivity, the amount (A) of binding of [^33P]-S1P to the membrane fraction upon addition of the compound was calculated.
The same procedure was performed in the absence of the test compound, and the amount (B) of binding of [^33P]-S1P was calculated. Moreover, the same procedure was performed in the absence of the test compound with the use of HEK-293 cells, to which the Edg-1(S1P1) gene had not been transferred, and the background amount (C) of binding of [^33P]-S1P was calculated.
The Edg-1(S1P1) binding inhibition rate of the compound, calculated from the following equation, is shown in […]

[3] = 10 μM compound, read-out: Cell system binding test % inhibition (10 μM)
[4] = 10 μM compound, membrane fraction of Edg-1(S1P1) gene transferred HEK-293 cells, read-out: Membrane system binding test % inhibition (10 μM)
[5] = test compound 10^-5 M, 1 hour, read-out: Edg-1(S1P1) binding inhibition rate (cell system binding test)
[6] = test compound 10^-5 M, 1 hour at 30° C., HEK-293 membrane fraction, read-out: Edg-1(S1P1) binding inhibition rate (membrane system binding test)

T1 sequence (P21453 whole entry): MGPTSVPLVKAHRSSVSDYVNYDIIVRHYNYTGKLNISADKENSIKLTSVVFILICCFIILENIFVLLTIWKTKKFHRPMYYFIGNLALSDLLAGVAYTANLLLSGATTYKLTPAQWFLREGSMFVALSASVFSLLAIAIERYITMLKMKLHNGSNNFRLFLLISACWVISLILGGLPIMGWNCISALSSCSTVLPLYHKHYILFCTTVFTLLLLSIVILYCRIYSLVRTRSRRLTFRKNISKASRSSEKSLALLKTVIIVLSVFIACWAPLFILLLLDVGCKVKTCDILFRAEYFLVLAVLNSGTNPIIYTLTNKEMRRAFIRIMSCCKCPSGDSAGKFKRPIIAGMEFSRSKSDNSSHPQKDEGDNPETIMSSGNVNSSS

In the case of `CCn1c(SCc2cccc(Cl)c2)nnc1[C@@H](C)NS(=O)(=O)c1ccc(Cl)cc1` [Compound 44], the inhibition at 10 µM [1, 3] is reported as 93% and the inhibition at 10 µM [2, 4] is reported as 99.6%.

In the case of `CCn1c(OC)nnc1[C@@H](C)NS(=O)(=O)c1ccc(Br)c(Br)c1` [Compound 448], the “Cell system binding test % inhibition (10 μM)” value ([1]; 10 μM compound) is reported as 89.7% and the “Membrane system binding test % inhibition (10 μM)” value ([2]; 10 μM compound, membrane fraction of Edg-1(S1P1) gene transferred HEK-293 cells) is reported as 99.6%.

Work on `CCn1c(OC)nnc1[C@@H](C)NS(=O)(=O)c1cccc(C(F)(F)F)c1` [Compound 245] yielded an inhibition at 10 µM [1, 3] of 96.8% and an inhibition at 10 µM [2, 4] of 87.7%.

`CCn1c(OC)nnc1[C@@H](C)NS(=O)(=O)c1ccc(OC(F)F)cc1` [Compound 309] was tested, and the inhibition at 10 µM [1, 3] was 93.2% and the inhibition at 10 µM [2, 4] was 46.5%.

`CCn1c(OC)nnc1[C@@H](C)NS(=O)(=O)c1ccc(C)c(Cl)c1` [Compound 215] showed an inhibition at 10 µM [1, 3] of 98.3% and an inhibition at 10 µM [2, 4] of 94.4%.

In the case of `CCn1c(SCCc2ccncc2)nnc1[C@@H](C)NS(=O)(=O)c1ccc(Cl)cc1` [Compound 69], the inhibition at 10 µM [1, 3] is reported as 89.5% and the inhibition at 10 µM [2, 4] is reported as 92.7%.

Molecule `CCn1c(OC)nnc1[C@@H](C)NS(=O)(=O)c1cc(C)cc(C)c1` [Compound 308] has an inhibition at 10 µM [1, 3] of 95.5% and an inhibition at 10 µM [2, 4] of 68.1%.

Molecule `CCCOc1nnc([C@@H](C)NS(=O)(=O)c2ccc(OC)cc2)n1CC` [Compound 195] has an inhibition at 10 µM [1, 3] of 103% and an inhibition at 10 µM [2, 4] of 91.2%.

`CCn1c(OC)nnc1[C@@H](C)NS(=O)(=O)c1cc(C)ccc1OC` [Compound 273] showed an inhibition at 10 µM [1, 3] of 94.3% and an inhibition at 10 µM [2, 4] of 68.4%.

`CCn1c(OC)nnc1[C@@H](C)NS(=O)(=O)c1ccc(C)c(F)c1` [Compound 315] showed an inhibition at 10 µM [1, 3] of 100% and an inhibition at 10 µM [2, 4] of 85%.

`CCn1c(OC)nnc1[C@@H](Cc1ccccc1Cl)NS(=O)(=O)c1ccc(Cl)cc1` [Compound 439] was tested, and the inhibition at 10 µM [1, 3] was 95% and the inhibition at 10 µM [2, 4] was 100%.

For `CCOc1nnc([C@@H](C)NS(=O)(=O)c2ccc(I)cc2)n1CC` [Compound 435], the inhibition at 10 µM [1, 3] was 93.7% and the inhibition at 10 µM [2, 4] was 86.4%.

Molecule `CCn1c(SCc2ccc(NC(C)=O)cc2)nnc1[C@@H](C)NS(=O)(=O)c1ccc(Cl)cc1` [Compound 82] has an inhibition at 10 µM [1, 3] of 84.7% and an inhibition at 10 µM [2, 4] of 90.4%.

`CCn1c(OCC(F)(F)F)nnc1[C@@H](C)NS(=O)(=O)c1cccc(Br)c1` [Compound 491] gave an inhibition at 10 µM [1, 5] of 88.9% and an inhibition at 10 µM [2, 6] of 75.7%.

For `CCn1c(SCCc2c[nH]c3ccccc23)nnc1[C@@H](C)NS(=O)(=O)c1ccc(Cl)cc1` [Compound 85], the inhibition at 10 µM [1, 3] was 90.4% and the inhibition at 10 µM [2, 4] was 106%.

`CCn1c(OC(C)C)nnc1[C@@H](C)NS(=O)(=O)c1ccc(Br)s1` [Compound 452] was tested, and the inhibition at 10 µM [1, 5] was 91.8% and the inhibition at 10 µM [2, 6] was 89.7%.

Molecule `CCn1c(OC(C)C)nnc1[C@@H](C)NS(=O)(=O)c1ccc(F)c(Cl)c1` [Compound 456] has an inhibition at 10 µM [1, 5] of 87.4% and an inhibition at 10 µM [2, 6] of 89%.

Work on `CCn1c(SCc2ccc(Cl)cc2)nnc1[C@@H](C)NS(=O)(=O)c1ccc(Cl)cc1` [Compound 45] yielded an inhibition at 10 µM [1, 3] of 91.7% and an inhibition at 10 µM [2, 4] of 91.3%.

With `CCn1c(SCCC2CCN(C)CC2)nnc1[C@@H](C)NS(=O)(=O)c1ccc(Cl)cc1` [Compound 76] the inhibition at 10 µM [1, 3] was 97.3% and the inhibition at 10 µM [2, 4] was 101%.

Work on `CCn1c(OC(C)C)nnc1[C@@H](C)NS(=O)(=O)c1ccc(Br)c(Br)c1` [Compound 467] yielded an inhibition at 10 µM [1, 5] of 100% and an inhibition at 10 µM [2, 6] of 98.6%.

`CCn1c(SC2CCc3ccccc32)nnc1[C@@H](C)NS(=O)(=O)c1ccc(Cl)cc1` (stereo partly drawn) [Compound 51] was tested, and the inhibition at 10 µM [1, 3] was 91.2% and the inhibition at 10 µM [2, 4] was 93%.

Work on `CCn1c(OC(C)C)nnc1[C@@H](C)NS(=O)(=O)c1ccc(Br)c(C(F)(F)F)c1` [Compound 478] yielded an inhibition at 10 µM [1, 5] of 104% and an inhibition at 10 µM [2, 6] of 86%.

For `CCn1c(SCc2ccc(-c3ccccc3)cc2)nnc1[C@@H](C)NS(=O)(=O)c1ccc(Cl)cc1` [Compound 6], the inhibition at 10 µM [1, 3] was 94.3% and the inhibition at 10 µM [2, 4] was 99%.

For `C=CCSc1nnc([C@@H](CC)NS(=O)(=O)c2ccc(Cl)cc2)n1C(C)C` [Compound 117], the inhibition at 10 µM [1, 3] was 93.6% and the inhibition at 10 µM [2, 4] was 83.8%.

Work on `CCn1c(OC)nnc1[C@@H](C)NS(=O)(=O)c1ccc(Cl)cc1F` [Compound 312] yielded an inhibition at 10 µM [1, 3] of 95.9% and an inhibition at 10 µM [2, 4] of 50.7%.

`CCn1c(OC)nnc1[C@@H](C)NS(=O)(=O)c1cccc(OC(F)(F)F)c1` [Compound 275] was tested, and the inhibition at 10 µM [1, 3] was 99.4% and the inhibition at 10 µM [2, 4] was 71.9%.

`CCN(CCSc1nnc([C@@H](C)NS(=O)(=O)c2ccc(Cl)cc2)n1CC)c1ccccc1` [Compound 75] gave an inhibition at 10 µM [1, 3] of 92.7% and an inhibition at 10 µM [2, 4] of 99.4%.

`CCn1c(OC2CCOC2)nnc1[C@@H](C)NS(=O)(=O)c1ccc(Cl)cc1` (stereo partly drawn) [Compound 392] gave an inhibition at 10 µM [1, 3] of 95.6% and an inhibition at 10 µM [2, 4] of 85.1%.

`C=CCSc1nnc([C@@H](Cc2ccccc2)NS(=O)(=O)c2ccc(Cl)cc2)n1C` [Compound 134] showed an inhibition at 10 µM [1, 3] of 88.8% and an inhibition at 10 µM [2, 4] of 84.8%.

With `CCn1c(OC)nnc1[C@@H](C)NS(=O)(=O)c1ccc2[nH]c(=O)oc2c1` [Compound 443] the inhibition at 10 µM [1, 3] was 31.3% and the inhibition at 10 µM [2, 4] was 43%.

With `CCn1c(OC(C)C)nnc1[C@@H](C)NS(=O)(=O)c1ccc(Br)c(C)c1` [Compound 457] the inhibition at 10 µM [1, 5] was 85.4% and the inhibition at 10 µM [2, 6] was 101%.

For `C=CCSc1nnc([C@@H](Cc2ccccc2)NS(=O)(=O)c2ccc(Cl)cc2)n1CC` [Compound 138], the inhibition at 10 µM [1, 3] was 94.7% and the inhibition at 10 µM [2, 4] was 102%.

`CCn1c(SCc2ccc(C#N)cc2)nnc1[C@@H](C)NS(=O)(=O)c1ccc(Cl)cc1` [Compound 56] gave an inhibition at 10 µM [1, 3] of 87.1% and an inhibition at 10 µM [2, 4] of 91%.

In the case of `CCc1ccc(S(=O)(=O)N[C@H](C)c2nnc(OC(C)C)n2CC)cc1` [Compound 480], the inhibition at 10 µM [1, 5] is reported as 93.1% and the inhibition at 10 µM [2, 6] is reported as 77.4%.

In the case of `CCn1c(OC)nnc1[C@@H](C)NS(=O)(=O)c1cc2ccccc2s1` [Compound 369], the inhibition at 10 µM [1, 3] is reported as 105% and the inhibition at 10 µM [2, 4] is reported as 102%.

Molecule `C=CCSc1nnc([C@@H](C)NS(=O)(=O)c2ccc(Cl)cc2)n1C(C)C` [Compound 97] has an inhibition at 10 µM [1, 3] of 88.9% and an inhibition at 10 µM [2, 4] of 52.5%.

`CCn1c(OCC(F)(F)F)nnc1[C@@H](C)NS(=O)(=O)c1cc(F)c(F)c(F)c1` [Compound 490] gave an inhibition at 10 µM [1, 5] of 101% and an inhibition at 10 µM [2, 6] of 88.9%.

Work on `CCn1c(SCc2cccc3ccccc23)nnc1[C@@H](C)NS(=O)(=O)c1ccc(Cl)cc1` [Compound 48] yielded an inhibition at 10 µM [1, 3] of 93% and an inhibition at 10 µM [2, 4] of 101%.

Work on `CCCCCCCCCCCCCCCCOc1nnc([C@@H](C)NS(=O)(=O)c2ccc(Cl)cc2)n1CC` [Compound 192] yielded an inhibition at 10 µM [1, 3] of 75.5% and an inhibition at 10 µM [2, 4] of 105%.

Molecule `CCn1c(OCC(F)(F)F)nnc1[C@@H](C)NS(=O)(=O)c1cc(Cl)c(Cl)s1` [Compound 510] has an inhibition at 10 µM [1, 5] of 106% and an inhibition at 10 µM [2, 6] of 70.9%.

In the case of `CCOc1nnc([C@@H](C)NS(=O)(=O)c2cc(F)cc(F)c2)n1CC` [Compound 433], the inhibition at 10 µM [1, 3] is reported as 93.8% and the inhibition at 10 µM [2, 4] is reported as 70.2%.

In the case of `CCn1c(OCc2ccccc2)nnc1[C@@H](C)NS(=O)(=O)c1ccc(Cl)cc1` [Compound 381], the inhibition at 10 µM [1, 3] is reported as 97.1% and the inhibition at 10 µM [2, 4] is reported as 94.9%.

Molecule `CCn1c(OCC(F)(F)F)nnc1[C@@H](C)NS(=O)(=O)c1ccc(C)c(Cl)c1` [Compound 486] has an inhibition at 10 µM [1, 5] of 99.5% and an inhibition at 10 µM [2, 6] of 93.8%.

`CCn1c(OC)nnc1[C@@H](C)NS(=O)(=O)c1cccs1` [Compound 242] gave an inhibition at 10 µM [1, 3] of 100% and an inhibition at 10 µM [2, 4] of 49.9%.

`CCn1c(OC)nnc1[C@@H](C)NS(=O)(=O)c1ccc(I)cc1` [Compound 238] was tested, and the inhibition at 10 µM [1, 3] was 99.1% and the inhibition at 10 µM [2, 4] was 79.1%.
